Experimental findings from patent EP1096932B1, “ANTIHYPERTENSIVE COMBINATION OF VALSARTAN AND CALCIUM CHANNEL BLOCKER” (Novartis Pharma AG, priority 1998, dated 2000) are described below.

The subject of the test is diabetic SHRs. The test is described as follows: Survival of streptozotocin-diabetic SHRs under drug treatment. The settings on record: twice daily gavage. The class given is in vivo, spontaneously hypertensive rats (SHR). An excerpt:
In diabetic SHRs the presence of hypertension is an important determinant of renal injury, manifesting in functional changes such as albuminuria and in ultrastructural injury. For example, diabetic SHRs show ventricular hypertrophy and develop nephropathy resulting in sudden death events. Accordingly, the use of this animal model is well-applied in the art and suitable for evaluating effects of drugs on the development of diabetic renal diseases. There is a strong need to achieve a significant increase of the survival rate by treatment of hypertension in diabetes especially in NIDDM. It is known that CCBs are not considered as first line antihypertensives e.g. in NIDDM treatment. Though some kind of reduction of blood pressure may be achieved with CCBs, they may not be indicated for the treatment of renal disorders associated with diabetes.
Diabetes is induced in SHRs aged about 6 to 8 weeks weighing about 250 to 300 g by treatment e.g. with streptozotocin. The drugs are administered by twice daily gavage. Untreated diabetic SHRs are used as control group (group 1). […] On a regular basis, besides other parameters the survival rate after 21 weeks of treatment is being monitored. In week 21 of the study, following survival rates have been determined: […]

For `CCCCC(=O)N(Cc1ccc(-c2ccccc2-c2nnn[nH]2)cc1)[C@H](C(=O)O)C(C)C` [valsartan, (S)-N-(1-carboxy-2-methyl-prop-1-yl)-N-pentanoyl-N-[2'(1H-tetrazol-5-yl)biphenyl-4-yl-methyl]amine], the “Survival Rate” value (30 mg/kg of valsartan, week 21 (group 2)) is on record as 45.9%.

On to `COc1ccc(CCN(C)CCCC(C#N)(c2ccc(OC)c(OC)c2)C(C)C)cc1OC` (centres unmarked) [verapamil], for which, for the setting “20 mg/kg of verapamil, week 21 (group 3)”, the “Survival Rate” value turned out to be 42.9%.
